Test results: paper PMC8222254, “Self-assembly of an anion receptor with metal-dependent kinase inhibition and potent in vitro anti-cancer properties” (Nature Communications, 2021)
Values joined by “and” are separate entries in the source; they are usually repeats but may differ in a detail not shown here. Identical values can stand only once. Like-named read-outs stand apart in the source and are kept apart here.

Assays:
Assay in all cases: Chemosensitivity, 96 h continuous exposure, MTT assay
Assay type in all cases: cell-based, human
A549 = test system: A549
In short: (§1)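 IC50 is the concentration giving 50% growth reduction, derived from dose-response curves of MTT absorbance at 540 nm. Before dosing, lines were plated at 2 × 10^3 cells/well, GBM1 stem-like cells at 3 × 10^3/well, overnight at 37 °C; compound exposure lasted 96 h without interruption, vehicle 0.2% DMSO.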

ARPE-19 non-cancer cells = test system: ARPE-19 non-cancer cells
In short: as §1

MCF10A non-cancer cells = test system: MCF10A non-cancer cells
In short: as §1

H460 = test system: H460
In short: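 H460 lung and PSN1 pancreatic carcinoma lines, grown in RPMI-1640 with 10% FBS, were plated at 2 × 10^3 cells/well, dosed across a concentration range for 96 h, then given MTT for 4 h. Formazan absorbance at 540 nm gave IC50 values.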

BxPC3 = test system: BxPC3
In short: as §1

DLD-1 = test system: DLD-1
In short: as §1

HCT116 p53+/+ = test system: HCT116 p53+/+
In short: as §1

In the case of `O=P(O)(O)Oc1ccccc1.[Zn+2].[Zn+2].[Zn+2].c1ccc(-c2csc(NCCN(CCNc3nc(-c4ccccn4)cs3)CCNc3nc(-c4ccccn4)cs3)n2)nc1.c1ccc(-c2csc(NCCN(CCNc3nc(-c4ccccn4)cs3)CCNc3nc(-c4ccccn4)cs3)n2)nc1` [[L2Zn3(O3POPh)]4+], the IC50 (A549; A549, mean of replicates, read-out: Mean IC50) is reported as 739 nM, the IC50 (A549; A549, read-out: Mean IC50 values) is reported as 739 nM and the IC50 (A549; A549, single replicate, read-out: IC50 values for each replicate) is reported as 651 nM and 791 nM and 774 nM. The “Selectivity index (ARPE19)” value (A549; IC50 ARPE-19 / IC50 A549) was 311.57, the “Selectivity index (MCF10A)” value (A549; IC50 MCF10A / IC50 A549) was 70.84 and the “Relative potency (+ anion to no anion), Ratio + anion:no anion” value (from here on “Relative potency … Ratio + anion:no anion”) (A549; ratio of IC50, A549) was 1.83. For the same compound, the “Selectivity indices relative to ARPE-19, Ratio + anion:no anion” value (A549; ratio of SI (ARPE-19), A549) was 0.798, the “Selectivity indices relative to MCF10A, Ratio + anion:no anion” value (A549; ratio of SI (MCF 10A), A549) was 0.177 and the IC50 (ARPE-19 non-cancer cells; ARPE-19, mean of replicates, read-out: Mean IC50) was 230000 nM. For the same compound, the IC50 (ARPE-19 non-cancer cells; ARPE-19, single replicate, read-out: IC50 values for each replicate) was 273000 nM and 210000 nM and 208000 nM, the IC50 (ARPE-19 non-cancer cells; ARPE-19 non-cancer, read-out: Mean IC50 values) was 230000 nM and the “Relative potency … Ratio + anion:no anion” value (ARPE-19 non-cancer cells; ratio of IC50, ARPE-19) was 1.46. For the same compound, the IC50 (MCF10A non-cancer cells; MCF10A non-cancer, read-out: Mean IC50 values) was 52400 nM, the IC50 (MCF10A non-cancer cells; MCF10A, mean of replicates, read-out: Mean IC50) was 52400 nM and the IC50 (MCF10A non-cancer cells; MCF10A, single replicate, read-out: IC50 values for each replicate) was 37900 nM and 56100 nM and 63100 nM. For the same compound, the “Relative potency … Ratio + anion:no anion” value (MCF10A non-cancer cells; ratio of IC50, MCF10A) was 0.32, the IC50 (H460; H460, mean of replicates, read-out: Mean IC50) was 276 nM and the IC50 (H460; H460, read-out: Mean IC50 values) was 276 nM. The IC50 (H460; H460, single replicate, read-out: IC50 values for each replicate) was 263 nM and 517 nM and 187 nM and 138 nM, the “Selectivity index (ARPE19)” value (H460; IC50 ARPE-19 / IC50 H460) was 834.24 and the “Selectivity index (MCF10A)” value (H460; IC50 MCF10A / IC50 H460) was 189.68. For the same compound, the “Relative potency … Ratio + anion:no anion” value (H460; ratio of IC50, H460) was 0.77, the “Selectivity indices relative to ARPE-19, Ratio + anion:no anion” value (H460; ratio of SI (ARPE-19), H460) was 1.910 and the IC50 (BxPC3; BXPC3, mean of replicates, read-out: Mean IC50) was 1140 nM. The IC50 (BxPC3; BXPC3, read-out: Mean IC50 values) was 1140 nM, the “Selectivity index (ARPE19)” value (BxPC3; IC50 ARPE-19 / IC50 BXPC3) was 202.86 and the “Selectivity index (MCF10A)” value (BxPC3; IC50 MCF10A / IC50 BXPC3) was 46.13. For the same compound, the “Relative potency … Ratio + anion:no anion” value (BxPC3; ratio of IC50, BXPC3) was 3.55, the “Selectivity indices relative to ARPE-19, Ratio + anion:no anion” value (BxPC3; ratio of SI (ARPE-19), BXPC3) was 0.413 and the “Selectivity indices relative to MCF10A, Ratio + anion:no anion” value (BxPC3; ratio of SI (MCF 10A), BXPC3) was 0.091. For the same compound, the IC50 (DLD-1; DLD-1, mean of replicates, read-out: Mean IC50) was 230 nM, the IC50 (DLD-1; DLD-1, read-out: Mean IC50 values) was 230 nM and the “Selectivity index (ARPE19)” value (DLD-1; IC50 ARPE-19 / IC50 DLD-1) was 1001.09. For the same compound, the “Selectivity index (MCF10A)” value (DLD-1; IC50 MCF10A / IC50 DLD-1) was 227.62, the “Relative potency … Ratio + anion:no anion” value (DLD-1; ratio of IC50, DLD-1) was 1.35 and the “Selectivity indices relative to ARPE-19, Ratio + anion:no anion” value (DLD-1; ratio of SI (ARPE-19), DLD-1) was 1.082. The “Selectivity indices relative to MCF10A, Ratio + anion:no anion” value (DLD-1; ratio of SI (MCF 10A), DLD-1) was 0.239, the IC50 (HCT116 p53+/+; HCT116 p53+/+, mean of replicates, read-out: Mean IC50) was 64 nM and the IC50 (HCT116 p53+/+; HCT116 p53+/+, read-out: Mean IC50 values) was 64 nM. The IC50 (HCT116 p53+/+; HCT116 p53+/+, single replicate, read-out: IC50 values for each replicate) was 58 nM and 64 nM and 70 nM, the “Selectivity index (ARPE19)” value (HCT116 p53+/+; IC50 ARPE-19 / IC50 HCT116 p53+/+) was 3597.66 and the “Selectivity index (MCF10A)” value (HCT116 p53+/+; IC50 MCF10A / IC50 HCT116 p53+/+) was 818.02. For the same compound, the “Relative potency … Ratio + anion:no anion” value (HCT116 p53+/+; ratio of IC50, HCT116 p53+/+) was 0.14, the “Selectivity indices relative to ARPE-19, Ratio + anion:no anion” value (HCT116 p53+/+; ratio of SI (ARPE-19), HCT116 p53+/+) was 10.661 and the “Selectivity indices relative to MCF10A, Ratio + anion:no anion” value (HCT116 p53+/+; ratio of SI (MCF 10A), HCT116 p53+/+) was 2.358.
